Test results taken from US10501479B2, “Benzenesulfonyl-asymmetric ureas and medical uses thereof” (HELSINN HEALTHCARE SA, priority 2016, dated 2019).
Where two headings read alike, the source gives them in different places.

Assays:
[1] = biological target: T1, GHSR-1a (HEK293/GHSR1a cell line) (Homo sapiens, UniProt Q92847); experiment: Ghrelin agonist potency (EC50) with calcium FLIPR assay; type: cell-based
T1 construct: expressed in transfected cells; host or cells: HEK293/GHSR1a cell line
Procedure, shortened: (§1)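 Potency values were estimated from dose-response curves of relative fluorescence, with calcium followed for 2 minutes after additions at t=20 sec. Agonism was tested with compound alone. Antagonism was tested with compound plus 10 nM ghrelin and scored as a reduction of the ghrelin signal.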

[2] = biological target: T2, recombinant human ghrelin receptor (HEK293/GRLN) (Homo sapiens, UniProt Q92847); experiment: Ghrelin inverse agonist potency (EC50) with IP-1 (IP-One HTRF) assay; type: cell-based; settings: IP-1 assay
T2 construct: expressed in transfected cells
Procedure, shortened: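 HEK293/GRLN cells were seeded 18-22 hours before the test, then exposed to compound in stimulation buffer for 1 hour at 37° C, 5% CO2. IP-1 was detected by IP-One HTRF (IP1-d2 plus Tb-cryptate, 1 hour RT), reading 620 and 665 nm; the inverse agonist EC50 was derived from this.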

[3] = Metabolic stability in mouse liver microsomes; type: in vitro ADME
Procedure, shortened: (§2)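 Depletion of test compound in NADPH-fortified liver microsomes (pH 7.4 phosphate buffer, 37 °C) is followed over 90 min. Remaining compound in quenched samples is quantified by LC-MS/MS against the time-zero level.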

[4] = Metabolic stability in human liver microsomes; type: in vitro ADME
Procedure, shortened: as §2

[5] = biological target: T1, GHSR-1a (HEK293/GHSR1a cell line); experiment: Ghrelin antagonist potency (IC50) with calcium FLIPR assay, ghrelin 10 nM; type: cell-based
Procedure, shortened: as §1

[6] = HEK293/GHSR1a, read-out: Activity EC50/EMax: EC50 (ghrelin agonist potency)
[7] = HEK293/GRLN, read-out: Activity EC50 (ghrelin inverse agonist potency)
[8] = HEK293/GHSR1a, ghrelin 10 nM, read-out: Activity IC50 (ghrelin antagonist potency)
[9] = ghrelin agonist potency, read-out: Activity EC50/EMax
[10] = ghrelin inverse agonist potency, read-out: Activity EC50
[11] = ghrelin antagonist potency, read-out: Activity IC50

T2 sequence (Q92847 whole entry): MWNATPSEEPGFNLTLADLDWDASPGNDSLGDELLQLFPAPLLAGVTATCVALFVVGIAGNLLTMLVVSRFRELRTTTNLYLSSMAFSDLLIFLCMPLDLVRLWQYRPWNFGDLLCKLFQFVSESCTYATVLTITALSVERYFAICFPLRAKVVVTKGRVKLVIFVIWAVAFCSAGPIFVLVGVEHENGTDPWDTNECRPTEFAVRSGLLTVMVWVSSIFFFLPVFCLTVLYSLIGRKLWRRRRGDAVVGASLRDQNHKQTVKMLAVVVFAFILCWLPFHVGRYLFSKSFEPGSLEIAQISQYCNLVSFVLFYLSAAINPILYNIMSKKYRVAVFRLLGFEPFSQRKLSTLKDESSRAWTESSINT
T1 sequence (Q92847 whole entry): as above

SMILES | EC50 [1, 6] | EC50 [2, 7] | Metabolic Stability Study M = mouse [3] | Metabolic Stability Study H = human [4] | IC50 [5, 8] | EC50 [1, 9] | EC50 [2, 10] | IC50 [5, 11]
CC1c2ccccc2CCN1C(=O)Nc1ccc(S(=O)(=O)Cc2ccc3c(c2)CNC3)cc1 (stereo not drawn) [H1397, N-(4-((isoindolin-5-ylmethyl)sulfonyl)phenyl)-1-methyl-3,4-dihydroisoquinoline-2(1H)-carboxamide] | > 30000 nM | 67.8 nM | 32 µL/min/mg | 35.1 µL/min/mg | 1100 nM | – | – | –
COCCN1Cc2ccc(CS(=O)(=O)c3ccc(NC(=O)NC(C)c4ccccc4)cc3)cc2C1 (stereo not drawn) [H1338, 1-(4-(((2-(2-methoxyethyl)isoindolin-5-yl)methyl)sulfonyl)phenyl)-3-(1-phenylethyl)urea] | > 30000 nM | 6.5 nM | 242.1 µL/min/mg | 106.9 µL/min/mg | 7.6 nM | – | – | –
COc1cc(NC(=O)N(O)C(C)c2ccccc2F)ccc1S(=O)(=O)Cc1ccc2c(c1)CN(C)C2 (stereo not drawn) [H1511, 1-(1-(2-fluorophenyl)ethyl)-1-hydroxy-3-(3-methoxy-4-(((2-methylisoindolin-5-yl)methyl)sulfonyl)phenyl)urea] | – | – | 44.5 µL/min/mg | 94.2 µL/min/mg | – | > 30000 nM | 5.2 nM | 6.04 nM
COc1cc(NC(=O)N(O)C(C)c2ccccc2F)ccc1S(=O)(=O)Cc1ccc2c(c1)CNC2 (stereo not drawn) [H1510, 1-(1-(2-fluorophenyl)ethyl)-1-hydroxy-3-(4-((isoindolin-5-ylmethyl)sulfonyl)-3-methoxyphenyl)urea] | – | – | 18.4 µL/min/mg | 23.8 µL/min/mg | – | > 30000 nM | 3.5 nM | 5.36 nM
COc1cc(S(=O)(=O)Cc2ccc3c(c2)CN(C)C3)ccc1NC(=O)NC(C)c1cccc2ccccc12 (stereo not drawn) [H1425, 1-(2-methoxy-4-(((2-methylisoindolin-5-yl)methyl)sulfonyl)phenyl)-3-(1-(naphthalen-1-yl)ethyl)urea] | > 30000 nM | 1.8 nM | 141.5 µL/min/mg | 310.0 µL/min/mg | 8.1 nM | – | – | –
COc1cc(S(=O)(=O)Cc2ccc3c(c2)CN(C)C3)ccc1NC(=O)NC(C)c1ccccc1F (stereo not drawn) [H1426, 1-(1-(2-fluorophenyl)ethyl)-3-(2-methoxy-4-(((2-methylisoindolin-5-yl)methyl)sulfonyl)phenyl)urea] | > 30000 nM | 3.4 nM | 80.6 µL/min/mg | 77.3 µL/min/mg | 52.9 nM | – | – | –
CC(NC(=O)Nc1ccc(S(=O)(=O)Nc2ccc3c(c2)CN(C)C3)cc1)c1ccccc1 (stereo not drawn) [H1308, N-(2-methylisoindolin-5-yl)-4-(3-(1-phenylethyl)ureido) benzenesulfonamide] | > 30000 nM | 31.2 nM | 38.5 µL/min/mg | 49.4 µL/min/mg | 23.5 nM | – | – | –
CC(NC(=O)Nc1ccc(S(=O)(=O)Cc2cnc3c(c2)CN(C)C3)cc1)c1ccccc1 (stereo not drawn) [H1323, 1-(4-(((6-methyl-6,7-dihydro-5H-pyrrolo[3,4-b]pyridin-3-yl)methyl)sulfonyl)phenyl)-3-(1-phenylethyl)urea] | > 30000 nM | 102 nM | 58.5 µL/min/mg | 84.1 µL/min/mg | 243 nM | – | – | –
COc1cc(S(=O)(=O)Cc2ccc3c(c2)CNC3)ccc1NC(=O)N(C)C(C)c1ccccc1 (stereo not drawn) [H1398, 3-(4-((isoindolin-5-ylmethyl)sulfonyl)-2-methoxyphenyl)-1-methyl-1-(1-phenylethyl)urea] | > 30000 nM | 62.6 nM | 80.5 µL/min/mg | 52.9 µL/min/mg | 629 nM | – | – | –
CC(NC(=O)Nc1ccc(S(=O)(=O)Cc2ccc3c(c2)CNC3)cc1F)c1ccccc1F.Cl (stereo not drawn) [H1389, 1-(2-fluoro-4-((isoindolin-5-ylmethyl)sulfonyl)phenyl)-3-(1-(2-fluorophenyl)ethyl)urea] | > 30000 nM | 15.1 nM | 21.2 µL/min/mg | 21.3 µL/min/mg | 27.6 nM | – | – | –
COc1cc(S(=O)(=O)Cc2ccc3c(c2)CN(C)C3)ccc1NC(=O)N(O)C(C)c1ccccc1 (stereo not drawn) [H1518, 1-hydroxy-3-(2-methoxy-4-(((2-methylisoindolin-5-yl)methyl)sulfonyl)phenyl)-1-(1-phenylethyl)urea] | – | – | 154.7 µL/min/mg | 151.1 µL/min/mg | – | > 30000 nM | 7.8 nM | 27.4 nM
COC(=O)c1cc(S(=O)(=O)Cc2ccc3c(c2)CNC3)ccc1NC(=O)NC(C)c1ccccc1 (stereo not drawn) [H1459, methyl 5-((isoindolin-5-ylmethyl)sulfonyl)-2-(3-(1-phenylethyl)ureido)benzoate] | – | – | 49.3 µL/min/mg | 53.7 µL/min/mg | – | > 30000 nM | 8.4 nM | 11.5 nM
C[C@@H](NC(=O)Nc1ccc(S(=O)(=O)Cc2ccc3c(c2)C(F)CNC3)cc1)c1cccc(Cl)c1Cl (stereo partly drawn) [H1537, 1-((R)-1-(2,3-dichlorophenyl)ethyl)-3-(4-(((4-fluoro-1,2,3,4-tetrahydroisoquinolin-6-yl)methyl)sulfonyl)phenyl)urea] | – | – | 135.3 µL/min/mg | 43.2 µL/min/mg | – | > 30000 nM | 18.4 nM | 69 nM
CC(NC(=O)Nc1ccc(S(=O)(=O)Cc2ccc3c(c2)CN(C)C3)cc1)c1ccc(F)cc1 (stereo not drawn) [H1268, 1-(1-(4-fluorophenyl)ethyl)-3-(4-(((2-methylisoindolin-5-yl)methyl)sulfonyl)phenyl)urea] | > 30000 nM | 29.9 nM | 60.5 µL/min/mg | 108.7 µL/min/mg | 83.2 nM | – | – | –
COc1cccc(F)c1C(C)NC(=O)Nc1ccc(S(=O)(=O)Cc2ccc3c(c2)CNC3)cc1 (stereo not drawn) [H1455, 1-(1-(2-fluoro-6-methoxyphenyl)ethyl)-3-(4-((isoindolin-5-ylmethyl)sulfonyl)phenyl)urea] | > 30000 nM | 5.2 nM | 56.9 µL/min/mg | 55.5 µL/min/mg | 42.5 nM | – | – | –
CC(NC(=O)Nc1ccc(S(=O)(=O)Nc2ccc3c(c2)CCN(C)C3)cc1)c1cccc(F)c1F (stereo not drawn) [H1346, 4-(3-(1-(2,3-difluorophenyl)ethyl)ureido)-N-(2-methyl-1,2,3,4-tetrahydroisoquinolin-6-yl)benzenesulfonamide] | > 30000 nM | 6.98 nM | 69.3 µL/min/mg | 72.9 µL/min/mg | 19.1 nM | – | – | –
CC(NC(=O)Nc1ccc(S(=O)(=O)Cc2ccc3c(c2)CNC3)cc1)c1c(F)cccc1F (stereo not drawn) [H1391, 1-(1-(2,6-difluorophenyl)ethyl)-3-(4-((isoindolin-5-ylmethyl)sulfonyl)phenyl)urea] | > 30000 nM | 7.2 nM | 11.8 µL/min/mg | 14.8 µL/min/mg | 10.5 nM | – | – | –
COc1cccc(C(C)NC(=O)Nc2ccc(S(=O)(=O)Cc3ccc4c(c3)CN(C)C4)cc2)c1 (stereo not drawn) [H1327, 1-(1-(3-methoxyphenyl)ethyl)-3-(4-(((2-methylisoindolin-5-yl)methyl)sulfonyl)phenyl)urea] | > 30000 nM | 5.5 nM | 144.8 µL/min/mg | 165.3 µL/min/mg | 5.6 nM | – | – | –
CC(NC(=O)Nc1ccc(S(=O)(=O)Cc2ccc3c(c2)CN(C)C3)cc1)c1cccc2ccccc12 (stereo not drawn) [H1302, 1-(4-(((2-methylisoindolin-5-yl)methyl)sulfonyl)phenyl)-3-(1-(naphthalen-1-yl)ethyl)urea] | > 30000 nM | 4.7 nM | 164.1 µL/min/mg | 201.7 µL/min/mg | 5.7 nM | – | – | –
CC(NC(=O)Nc1ccc(S(=O)(=O)Cc2ccc3c(c2)CN(C2COC2)C3)cc1)c1ccccc1 (stereo not drawn) [H1319, 1-(4-(((2-(oxetan-3-yl)isoindolin-5-yl)methyl)sulfonyl)phenyl)-3-(1-phenylethyl)urea] | > 30000 nM | 12.5 nM | > 500 µL/min/mg | 195.6 µL/min/mg | 41 nM | – | – | –
CC(NC(=O)Nc1ccc(S(=O)(=O)Cc2ccc3c(c2)CNC3)cc1)c1cccc(F)c1 (stereo not drawn) [H1269, 1-(1-(3-fluorophenyl)ethyl)-3-(4-((isoindolin-5-ylmethyl)sulfonyl)phenyl)urea] | > 30000 nM | 8.8 nM | 23.6 µL/min/mg | 25.7 µL/min/mg | 24 nM | – | – | –
